# Source: PMC7196807 (Proceedings of the National Academy of Sciences of the …, 2020)
# Biological target: hIP6K1 (IP6K1) (Homo sapiens, UniProt Q92551)
# Assay: kinase product identified by Dipp1 cocrystal structure
# Type: biochemical
# Conditions: kinase site
# hIP6K1 (IP6K1), sequence (Q92551 whole entry): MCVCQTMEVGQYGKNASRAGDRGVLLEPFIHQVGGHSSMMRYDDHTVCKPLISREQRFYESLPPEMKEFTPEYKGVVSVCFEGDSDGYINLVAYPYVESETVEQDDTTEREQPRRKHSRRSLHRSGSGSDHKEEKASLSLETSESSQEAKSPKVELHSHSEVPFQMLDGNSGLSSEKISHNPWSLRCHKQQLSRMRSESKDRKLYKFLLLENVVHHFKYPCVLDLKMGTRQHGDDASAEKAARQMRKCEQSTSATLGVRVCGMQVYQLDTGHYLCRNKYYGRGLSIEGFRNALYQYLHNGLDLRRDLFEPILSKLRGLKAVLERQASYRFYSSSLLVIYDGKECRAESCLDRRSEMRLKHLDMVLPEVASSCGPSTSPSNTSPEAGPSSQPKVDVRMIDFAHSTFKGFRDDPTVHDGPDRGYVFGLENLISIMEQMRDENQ
smiles,measurement,value
O=P(O)(O)O[C@H]1[C@@H](OP(=O)(O)O)[C@H](OP(=O)(O)O)[C@@H](OP(=O)(O)OP(=O)(O)O)[C@H](OP(=O)(O)O)[C@H]1OP(=O)(O)O [5-IP7],kinase product identified by Dipp1 cocrystal structure,IP6K1 IP7 product/DIPP complex confirms the stereomer as unambiguously 5-IP7
